Test results taken from patent EP0517918B1, “MONOCLONAL ANTIBODY AGAINST CARDIAC GLYCOSIDE AND UTILIZATION THEREOF” (SUNTORY LIMITED, priority 1990, dated 1992).

Tested on: Na^+,K^+-ATPase
Assay: Na^+,K^+-ATPase inhibition rate (potassium ion concentration antagonist type), molybdate colorimetry
Assay type: biochemical
Details: 1 µM
Method: It is known that ouabain inhibits the enzyme activity of Na^+,K^+-ATPase. As such the Na^+,K^+-ATPase inhibitory activity of the various substances used as antigens in Example 4, Part B was examined to investigate the correlation between that inhibitory activity and reactivity with the monoclonal antibody of the present invention.
1.35 ml of TES buffer (80 mM TES, 200 mM NaCl, 9 mM MgSO4·7H2O and 10 mM EGTA adjusted to pH 7.4 with NaOH), 0.27 ml of 0.2% ODG (octyl-D-glucoside), 0.27 ml of 10^-5 M sample (10^-6 M during reaction), and 0.44 ml of distilled water were added to a plastic test tube which was then placed in an incubator at 25°C. 0.27 ml of 1 mM or 100 mM KCl and 50 µl of ATPase solution (stock solution, in which 5 units of […] (Sigma) were dissolved in 2 ml of 10 mM TES (pH 7.4) diluted 2.5 times with 10 mM TES (pH 7.4) as necessary) were added followed by incubation for 5 - 10 minutes at 25°C. Next, the reaction was started by addition of 50 µl of ATP solution (71 mg of ATP dissolved in 5 ml of 10 mM TES (pH 7.4) (Sigma)).
The reaction was allowed to proceed at 25°C for 30 minutes in the case of using 1 mM KCl (0.1 mM in the reaction solution), and for 10 minutes in the case of using 100 mM KCl (10 mM in the reaction solution). Next, 0.03 ml of 1% Triton™ X-100 solution (in distilled water) and 0.3 ml of 2.5% AmM solution (5 g of (NH4)6Mo7O24·4H2O dissolved in 6 N H2SO4 and brought to a volume of 200 ml) were mixed immediately prior to use (for a total of 0.33 ml) and then added to the reaction solution followed by incubation for 10 minutes at 25°C to stop the reaction and develop color. The absorbance of the reaction solution was then measured at 660 nm and the Na^+,K^+-ATPase inhibition rate (%) was calculated according to the following formula. Na^+ ,K^+ -ATPase Inhibition Rate (%) = [(Ao -Aw )/Ao ] × 100 [formula] Ao: Na^+,K^+-ATPase activity when sample not added Aw: Na^+,K^+-ATPase activity when sample added

[1] = 0.1 mM K^+ in the reaction solution, sample 10^-6 M during reaction, 30 minutes at 25°C
[2] = 10 mM K^+ in the reaction solution, sample 10^-6 M during reaction, 10 minutes at 25°C

Row | Structure (SMILES) | (Na^+,K^+-ATPase Inhibition) Rate (%) 0.1 mM K^+ [1] | (Na^+,K^+-ATPase Inhibition) Rate (%) 10 mM K^+ [2] | (Na^+,K^+-ATPase Inhibition) Rate (%) 0.1 mM K^+ | (Na^+,K^+-ATPase Inhibition) Rate (%) 10 mM K^+
1 | CCCCC/C=C\C/C=C\C/C=C\C/C=C\CCCC(=O)O [Arachidonic acid] | -5% | -2% |  | 
2 | C[C@]12CC[C@H](O)C[C@H]1CC[C@@H]1[C@@H]2CC[C@]2(C)[C@@H](C3=CC(=O)OC3)CC[C@]12O [Digitoxigenin] |  |  | 44% | 17%
3 | CCCCCCCCCCCCCCCCOC[C@H](COP(=O)([O-])OCC[N+](C)(C)C)OC(C)=O [PAF, L-d-phosphatidylcholine-β-aceyl-γ-O-hexadecyl] | -3% | 1% |  | 
4 | C[C@H](CCC(=O)O)[C@H]1CC[C@H]2[C@@H]3[C@H](O)C[C@@H]4C[C@H](O)CC[C@]4(C)[C@H]3C[C@H](O)[C@]12C [Cholic acid] | 2% | -3% |  | 
5 | C[C@H]1O[C@@H](O[C@H]2[C@@H](O)C[C@H](O[C@H]3[C@@H](O)C[C@H](O[C@H]4CC[C@@]5(C)[C@H](CC[C@@H]6[C@@H]5CC[C@]5(C)[C@@H](C7=CC(=O)OC7)CC[C@]65O)C4)O[C@@H]3C)O[C@@H]2C)C[C@H](O)[C@@H]1O [Digitoxin] | 41% | 11% |  | 
6 | C[C@H]1CCCC[C@H]1O (relative stereo) [cis-2-Methylcyclohexanol] | -2% | 2% |  | 
7 | C[C@@H]1OC(O)[C@H](O)[C@H](O)[C@H]1O (stereo partly drawn) [L-Rhamnose] | -2% | -4% |  | 
8 | C[C@]12CCC(=O)C=C1CC[C@@H]1[C@@H]2[C@@H](O)C[C@@]2(C)[C@H]1CC[C@]2(O)C(=O)CO [Hydrocortisone] | -3% | -1% |  | 
9 | CCCCC/C=C\C/C=C\CCCCCCCC(=O)O [Linoleic acid] | -7% | -5% |  | 
10 | C[C@]12C[C@H](O)[C@H]3[C@@H](CCC4=CC(=O)CC[C@@]43C)[C@@H]1CC[C@@H]2C(=O)CO [Corticosterone] | -4% | 1% |  | 
11 | OC1CCCCC1 [Cyclohexanol] | -3% | 0.4% |  | 
12 | C1CC[C@H]2CCC[C@H]2C1 [cis-Hydrindane] | -1% | 0.5% |  | 
13 | C[C@H]1O[C@@H](O[C@H]2[C@@H](O)C[C@H](O[C@H]3[C@@H](O)C[C@H](O[C@H]4CC[C@@]5(C)[C@H](CC[C@@H]6[C@@H]5C[C@@H](O)[C@]5(C)[C@@H](C7=CC(=O)OC7)CC[C@]65O)C4)O[C@@H]3C)O[C@@H]2C)C[C@H](O)[C@@H]1O [Digoxin] |  |  | 45% | 18%
14 | CC(=O)[C@H]1CC[C@H]2[C@@H]3CCC4=CC(=O)CC[C@]4(C)[C@H]3CC[C@]12C [Progesterone] | 3% | 5% |  | 
15 | C[C@]12C[C@@H](O)[C@H]3[C@@H](CC[C@]4(O)C[C@@H](O)C[C@@H](O)[C@]34CO)[C@@]1(O)CC[C@@H]2C1=CC(=O)OC1 [Ouabagenin] | 44% | 6% |  | 
16 | C[C@]12CC[C@H](O)C[C@@H]1CC[C@@H]1[C@@H]2CC[C@]2(C)[C@@H](C3=CC(=O)OC3)CC[C@]12O [Uzarigenin] |  |  | 42% | 6%
17 | C[C@]12CCC(=O)C=C1CC[C@@H]1[C@@H]2[C@@H](O)C[C@]2(C=O)[C@@H](C(=O)CO)CC[C@@H]12 [α-Aldosterone] | 1% | -11% |  | 
18 | O=C1C=CCO1 [2(5H)-Furanone] | 6% | -5% |  | 
19 | C[C@@H]1O[C@@H](O[C@H]2C[C@@H](O)[C@]3(CO)[C@H]4[C@H](O)C[C@]5(C)[C@@H](C6=CC(=O)OC6)CC[C@]5(O)[C@@H]4CC[C@]3(O)C2)[C@H](O)[C@H](O)[C@H]1O [Ouabain] | 41% | 18% |  | 
20 | CCCCCCCCCCCCCCCCOC[C@@H](O)COP(=O)([O-])OCC[N+](C)(C)C [LisoPAF, L-α-lysophosphatidylcholine-γ-O-hexadecyl] | -2% | 0.4% |  | 
